# Assay results published in patent US6900033B2, “Methods and compositions for modulating ACE-2 activity” (Human Genome Sciences, Inc., priority 2001, dated 2005).
# Values joined by “and” are separate entries in the source; they are usually repeats but may differ in a detail not shown here. Equal values may be shown once. “Also recorded” adds a separate entry of the source. Positions of bridges follow the written chain, without caps; N, C: chain ends.
# Legend:
# ACE-2 [1] = target: T1, ACE-2 (Homo sapiens, UniProt Q9BYF1); settings: literature (Donoghue 2000; Tipnis 2000); cited from earlier work
# T1 construct: nucleotides corresponding to the extracellular domain (M1-S740); FLAG; made in house; host or cells: Sf9 insect cells (recombinant baculovirus, transfer vector pA2); purified from conditioned media
# T1 sequence (Q9BYF1 18-740): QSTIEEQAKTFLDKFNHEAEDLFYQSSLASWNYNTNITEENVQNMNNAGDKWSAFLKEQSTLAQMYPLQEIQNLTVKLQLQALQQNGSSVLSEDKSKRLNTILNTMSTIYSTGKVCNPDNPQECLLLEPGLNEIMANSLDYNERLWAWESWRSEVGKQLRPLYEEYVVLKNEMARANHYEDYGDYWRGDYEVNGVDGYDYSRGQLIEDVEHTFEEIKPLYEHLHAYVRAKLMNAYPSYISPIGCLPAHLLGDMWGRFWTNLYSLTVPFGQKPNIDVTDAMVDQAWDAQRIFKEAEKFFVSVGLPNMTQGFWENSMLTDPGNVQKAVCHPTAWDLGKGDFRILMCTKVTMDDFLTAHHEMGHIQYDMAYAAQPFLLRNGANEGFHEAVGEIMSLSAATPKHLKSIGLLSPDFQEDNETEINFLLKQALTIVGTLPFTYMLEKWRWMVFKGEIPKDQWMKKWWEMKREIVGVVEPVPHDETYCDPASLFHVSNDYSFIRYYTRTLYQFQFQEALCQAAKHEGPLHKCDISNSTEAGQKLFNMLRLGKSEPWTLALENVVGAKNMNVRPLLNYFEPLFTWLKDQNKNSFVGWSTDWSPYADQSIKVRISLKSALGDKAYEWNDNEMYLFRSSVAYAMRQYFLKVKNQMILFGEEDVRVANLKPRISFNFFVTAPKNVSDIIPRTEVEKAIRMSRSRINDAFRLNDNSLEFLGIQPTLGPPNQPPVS
# ACE-2 [2] = target: T1, ACE-2; test: Fluorometric ACE-2 inhibition assay with peptide M-2195 as substrate; type: biochemical; settings: ACE-2 activity, M-2195 substrate, enzyme pre-incubated 30 minutes with inhibitor, 100 mM TRIS pH 7.4
# Protocol: Assay mixture was prepared first by pre-incubating (30 minutes, room temperature) the enzyme with the inhibitor (0.45 μg ([…]) ACE-2, 0-0.5 μM inhibitor rage, up to 90 […] volume with 100 mM TRIS pH 7.4, 0.1% Tween-20, 0.4% DMSO) in each well, in triplicate, by dispensing volumes using a repeat pipetter (Rainin) into a 96-well clear-bottom back plate (Costar, 07-200-590). […] Substrate stock (10 μL of 10× concentration) was added to each well to be tested in blocks of three vertically down the plate. The reaction was monitored on a Spectrafluor Plus (Tecan) at an excitation wavelength of 340 nm and an emission wavelength of 400 nm (+/−35 nm) every 30 seconds for a time period of 10 minutes.
# ACE-2 cleaves off the C-terminal lysine from the peptide with a concomitant increase in fluorescence signal.
# The assays were performed in 96-well clear-bottom black plates (Costar, 07-200-590). In each well, 0.45 μg (5 pmoles) of ACE-2 is added to 90 μL of an assay solution containing 100 mM TRIS at pH 7.4, 0.1% Tween, and 0.4% DMSO. Substrate stock at 10 μL of 10× concentration is added to each well (for example, 10 μL of 1 mM stock for a final 100 μM concentration). The reaction was monitored on a Spectrafluor Plus (Tecan) at an excitation wavelength of 340 nm and an emission wavelength of 400 nm (+/−35 nm) every 30 seconds up to 10 minutes. All samples were measured in triplicate.
# [3] = system: isolated aortic vascular rings; test: Developed isometric tension of isolated rat aortic vascular rings; settings: for potentiation of angiotensin II-mediated vasoconstriction: peptide combined with angiotensin II
# Text: The effects of graded doses of A1-9 (Fields et al., Peptide Research 4: 95-101 (1991)) or A1-10 (substrate control) alone or in combination (Tallarida, Drug Synergism and Dose-Effect Data Analysis, Chapman and Hall/CRC, New York (2000), Tallarida et al., Life Science 61: PL417-425 (1997)) with angiotensin II were examined on isolated aortic vascular rings developed tension in response to vasoactive substances. Aortas were removed from mature male Sprague-Dawley rats, cleared of connective tissue, and cut into 1 mm rings. Rings were mounted to an isometric force transducer and placed in Krebs-Henseleit solution bubbled with 95% 02/5% C02 at 37° C. Rings were exposed to a 2 g preload, relaxed and then exposed to various concentrations of angiotensin peptides alone or in combination. Following angiotensin peptide dosing, rings were fully constricted with KCl to determine the maximum degree of vasoconstriction.
# The maximum tension developed by A1-9 was minimal and always less than that of angiotensin II.
# isolated rat aorta = settings: literature (Oparil 1971); cited from earlier work
# [4] = system: awake, free-ranging Sprague-Dawley rats; test: Arterial pressure in awake, free-ranging Sprague-Dawley rats, intravenous infusion; type: in vivo, rat
# Protocol: To investigate the effects of A1-9 on arterial pressure, A1-9 was administered to awake, free-ranging Sprague-Dawley rats via indwelling intravenous and arterial catheters. Intravenous infusion of A1-9 (1-3 μg/kg/min) in the awake rat produced a dose-dependent tonic increase in mean arterial pressure to a maximum of approximately 30 mmHg (FIG. 2). […] These responses seen with A1-9 were similar in magnitude to those induced by angiotensin II.
# To examine any interactions induced by coadministration of A1-9 and angiotensin II, arterial pressure was monitored in the awake rat after they received either A1-9 (1 μg/kg/min) or saline coinfused with angiotensin 11 (1-100 ng/kg/min).
# anesthetized rats = settings: literature (Oparil 1971); cited from earlier work
# anesthetized dogs = settings: literature (Oparil 1971); cited from earlier work
# [5] = intravenous infusion 1-3 μg/kg/min, awake rat
molecule,measurement,setting,value
C[C@H](CS)C(=O)N1CCC[C@H]1C(=O)O [captopril],block of ACE-2 conversion of angiotensin I to angiotensin 1-9,ACE-2 [1],not blocked
Ac-AGEGNCFLIGPWCFEFGTEGGG-NH2 (disulfide 6-13 (inferred)) [DX-504],Inhibition,ACE-2 [2],−
Ac-AGVYFCFDWEQDCDEMGTEGGG-NH2 (disulfide 6-13 (inferred)) [DX-528],Inhibition,ACE-2 [2],−
Ac-AGWVLCFEWEDCDEKGTEGGG-NH2 (disulfide 6-12 (inferred)) [DX-527],Inhibition,ACE-2 [2],−
Ac-GDDDDCGWIGFANFHLCLHGDPEGGG-NH2 (disulfide 6-17 (inferred)) [DX-510],Inhibition,ACE-2 [2],−
Ac-GSDQNCFAMYCFEFAPGEGGG-NH2 (disulfide 6-11 (inferred)) [DX-503],Inhibition,ACE-2 [2],−
Ac-GSLEMCEALFCVEFAPGEGGG-NH2 (disulfide 6-11 (inferred)) [DX-502],Inhibition,ACE-2 [2],−
Ac-GSNDYCTVFTGALFCLDFAPEGGG-NH2 (disulfide 6-15 (inferred)) [DX-507],Inhibition,ACE-2 [2],−
"angiotensin I (DRVYIHPFHL; Angiotensin-1; UniProt P01019 25-34, looked up) [substrate control; the ACE and ACE-2 substrate]",potentiation of angiotensin II-mediated vasoconstriction,[3],failed to potentiate
"des-Leu^10-angiotensin I (DRVYIHPFH; Angiotensin 1-9; UniProt P01019 25-33, looked up) [A1-9, nonapeptide formed by removal of the C-terminal leucine from angiotensin I]",vasoconstrictor activity,isolated rat aorta,weak vasoconstrictor
same,effect on the pressor response to angiotensin II,"[4]; coinfused with angiotensin II 1-100 ng/kg/min, A1-9 at 1 μg/kg/min",potentiated the pressor response elicted by angiotensin II in an additive fashion
same,heart rate,[4]; [5],decreased in a dose-dependent manner
same,maximum increase in mean arterial pressure,[4]; [5],approximately 30 mmHg
same,pulse pressure (systolic - diastolic),[4]; [5],elevated
same,pressor activity,anesthetized rats,weak pressor activity
same,pressor activity,anesthetized dogs,weak pressor activity
same,Al-9 % Max. Developed Force,"[3]; Emax, A1-9 alone, 1-30 nM, mature rat aortic rings, % of KCl maximum, one value per experiment 1-5, listed as Al-9",3.5% and 0% and 7.5% and 6.4% and 3.2%
same,potentiation of angiotensin II-mediated vasoconstriction,[3],synergistic or supraadditive potentiation
same,vasoconstrictor activity of the peptide alone,[3]; rat aortic rings,no effect on vascular tone; also recorded: virtually devoid of activity
same,factor of increase of the relative potency of angiotensin II beyond simple additive potentiation,"[3]; shift of angiotensin II dose-effect curve by A1-9, FIG. 1",11.6 (95% confidence limits of 3.02-44.7)
